Results on 23 compounds are retold here after patent US20250179059A1 (The Regents of the University of California, priority 2021, published 2025).

The term GI50 denotes the concentration that inhibits growth by half. Low values mean greater sensitivity of the cells, high ones lower sensitivity of the cells. The IC50 is the point on the concentration scale where inhibition reaches its midpoint.

Where two headings read alike, the source gives them in different places.

Test [1] deals with human SKM-1 acute myeloid leukemia cells. Briefly: SKM-1 antiproliferation cell-based assay (ATPlite). The conditions noted are these: Homo sapiens. The method in brief: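 Log-phase cells in RPMI 1640/15% FBS were seeded at 34722 cells/mL and exposed for 4 days to nine-concentration DMSO serial dilutions in triplicate. Viability was read as ATP luminescence (ATPlite 1step), and IC50 values came from variable-slope non-linear regression.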
For orientation: Cellular ATP, detected with luciferase, serves as a proxy for viable cell number.

Test [2] deals with T1, human BRD4 bromodomain II (Homo sapiens, UniProt O60885).
T1 construct: human BRD4 bromodomain II [based on Genbank NM_058243, residues 349-460]; host or cells: E. coli
Briefly: Bromodomain binding assay (AlphaScreen), BRD4 BDII. The method in brief: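 Compounds (10-point, 3-fold series) were preincubated 30 min at room temperature with E. coli-expressed N-terminal His6-tagged BRD4 BDII (residues 349-460) or BDI (residues 44-170) in 50 mM HEPES pH 7.5, 100 mM NaCl, 0.05% CHAPS, 0.1% BSA, 1% DMSO. Displacement of biotinylated tetra-acetylated H4 1-21 peptide was read by AlphaScreen; IC50 from curve fitting.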

[3] abbreviates: SKM-1, SKM-1 antiproliferation assay.
Where [4] appears, read: BRD4 BDII AlphaScreen assay, read-out: BRD4 BD2 IC50.
[5] abbreviates: SKM-1, 96 h, SKM-1 antiproliferation assay, 4 days, Table C2.
Setting [6] is: AlphaScreen assay, Table C2, read-out: BRD4 BDII IC50.

As for `Cn1ccn(-c2ccc(-c3cc(F)cc(-c4cccc(C5=CCN(C(C)(C)C)CC5)c4)c3O)cc2Cl)c1=O` [Example 951, 1-(3″-(1-(tert-butyl)-1,2,3,6-tetrahydropyridin-4-yl)-3-chloro-5′-fluoro-2′-hydroxy-[1,1′:3′,1″-terphenyl]-4-yl)-3-methyl-1H-imidazol-2(3H)-one], the GI50 in test [1] (setting [3]) was 0.3 to 30 nM. Further, the IC50 in test [2] (setting [4]) lay within 1 to 10 nM.
With `CC(=O)NC(C)(C)C#Cc1cccc(-c2cc(F)cc(-c3ccc(-n4ccn(C)c4=O)c(Cl)c3)c2O)c1` [Example 795, N-(4-(3″-chloro-5′-fluoro-2′-hydroxy-4″-(3-methyl-2-oxo-2,3-dihydro-1H-imidazol-1-yl)-[1,1′:3′,1″-terphenyl]-3-yl)-2-methylbut-3-yn-2-yl)acetamide], the GI50 in test [1] (setting [5]) was 300 to 3000 nM. The IC50 in test [2] (setting [6]) was greater than 100 nM.
In test [1] (setting [5]), `CC(=O)Nc1ccc(-c2cccc(-c3ccnc(N4CCC(CO)C4)c3)c2O)cc1F` (stereo not shown) [Example 230, N-(3-fluoro-2′-hydroxy-3′-(2-(3-(hydroxymethyl)pyrrolidin-1-yl)pyridin-4-yl)-[1,1′-biphenyl]-4-yl)acetamide] returned a GI50 of 300 to 3000 nM. Also, the concentration for half-maximal inhibition (IC50) in test [2] (setting [6]) lay within 1 to 10 nM.
`Cn1ccn(-c2ccc(-c3cc(F)cc(-c4cc(NS(C)(=O)=O)nc(N5CCNCC5)c4)c3O)cc2Cl)c1=O` [Example 439, N-(4-(3′-chloro-5-fluoro-2-hydroxy-4′-(3-methyl-2-oxo-2,3-dihydro-1H-imidazol-1-yl)-[1,1′-biphenyl]-3-yl)-6-(piperazin-1-yl)pyridin-2-yl)methanesulfonamide] had a GI50 in test [1] (setting [5]) of 30 to 300 nM. Also, the IC50 in test [2] (setting [6]) fell in the range of 0.01 to 1 nM.
In test [1] (setting [3]), `COc1ncc(-c2nc(C)cc(-c3ccc(-n4ccn(C)c4=O)c(Cl)c3)c2O)cc1N1CC[C@]2(CCN2C(C)C)C1` [Example 1022, (R)-1-(2-chloro-4-(3-hydroxy-5′-(1-isopropyl-1,6-diazaspiro[3.4]octan-6-yl)-6'-methoxy-6-methyl-[2,3′-bipyridin]-4-yl)phenyl)-3-methyl-1,3-dihydro-2H-imidazol-2-one] returned a GI50 of 0.3 to 30 nM. Besides, the IC50 in test [2] (setting [4]) is 0.01 to 1 nM.
The compound `CN1CCN(c2ccc(-c3cc(F)cc(-c4ccnc(N5CCNCC5=O)c4)c3O)cc2Cl)C1=O` [Example 449, 1-(4-(3′-chloro-5-fluoro-2-hydroxy-4′-(3-methyl-2-oxoimidazolidin-1-yl)-[1,1′-biphenyl]-3-yl)pyridin-2-yl)piperazin-2-one] came in with a GI50 in test [1] (setting [5]) of 300 to 3000 nM. Moreover, the IC50 in test [2] (setting [6]) lay in the range of 1 to 10 nM.
In the case of `CC(=O)Nc1ccc(-c2cccc(-c3ccnc(C#CCCN)c3)c2O)cc1F` [Example 304, N-(3′-(2-(4-aminobut-1-yn-1-yl)pyridin-4-yl)-3-fluoro-2′-hydroxy-[1,1′-biphenyl]-4-yl)acetamide], in test [1] (setting [5]), the GI50 is 300 to 3000 nM. For the same compound, the IC50 in test [2] (setting [6]) was in the range of 10 to 100 nM.
For the compound `Cn1ccn(-c2ccc(-c3cc(F)cc(-c4ccnc(N5CCN(CCN)CC5)c4)c3O)cc2Cl)c1=O` [Example 616, 1-(3′-(2-(4-(2-aminoethyl)piperazin-1-yl)pyridin-4-yl)-3-chloro-5′-fluoro-2′-hydroxy-[1,1′-biphenyl]-4-yl)-3-methyl-1H-imidazol-2(3H)-one], the GI50 in test [1] (setting [5]) is 0.3 to 30 nM. In addition, the IC50 in test [2] (setting [6]) lay within 0.01 to 1 nM.
`CN1CCC12CCN(c1cc(-c3cc(F)cc(-c4ccc(-n5ccn(C)c5=O)c(Cl)c4)c3O)ccn1)C2` (stereo not shown) [Example 642, 1-(3-chloro-5′-fluoro-2′-hydroxy-3′-(2-(1-methyl-1,6-diazaspiro[3.4]octan-6-yl)pyridin-4-yl)-[1,1′-biphenyl]-4-yl)-3-methyl-1H-imidazol-2(3H)-one] registered a GI50 in test [1] (setting [5]) of 0.3 to 30 nM. Moreover, in test [2] (setting [6]), the IC50 was in the range of 0.01 to 1 nM.
In turn, `CN1CCN(c2ccc(-c3cc(F)cc(-c4cnc(C(=O)O)c(N5CCNCC5)c4)c3O)cc2Cl)C1=O` [Example 398, 5−(3′-chloro-5-fluoro-2-hydroxy-4′-(3-methyl-2-oxoimidazolidin-1-yl)-[1,1′-biphenyl]-3-yl)-3-(piperazin-1-yl)picolinic acid] had a GI50 in test [1] (setting [5]) of no less than 3000 nM. Further, the half-inhibitory concentration (IC50) in test [2] (setting [6]) is 10 to 100 nM.
Consider `Cc1cc(-c2ccc(-n3ccn(C)c3=O)c(Cl)c2)c(O)c(-c2ccnc(N3CCN(C(C)(C)C)CC3)c2)n1` [Example 998, 1-(4-(2′-(4-(tert-butyl)piperazin-1-yl)-3-hydroxy-6-methyl-[2,4′-bipyridin]-4-yl)-2-chlorophenyl)-3-methyl-1H-imidazol-2(3H)-one], for which, in test [1] (setting [3]), the GI50 fell in the range of 0.3 to 30 nM. In test [2] (setting [4]), the IC50 fell in the range of 1 to 10 nM.
`Cn1ccn(-c2c(Cl)cc(-c3cc(F)cc(-c4cccc(N5CCN(C(C)(C)C)CC5)c4)c3O)cc2OC2CC2)c1=O` [Example 930, 1-(3″-(4-(tert-butyl)piperazin-1-yl)-3-chloro-5-cyclopropoxy-5′-fluoro-2′-hydroxy-[1,1′:3′,1″-terphenyl]-4-yl)-3-methyl-1H-imidazol-2(3H)-one] had a GI50 in test [1] (setting [3]) of 300 to 3000 nM. For the same compound, in test [2] (setting [4]), the IC50 was greater than 100 nM.
In the case of `Cc1cc(-c2ccc(-n3ccn(C)c3=O)c(Cl)c2)c(O)c(-c2cccc(N3CCN(C(C)(C)C)CC3)c2)n1` [Example 916, 1-(4-(2-(3-(4-(tert-Butyl)piperazin-1-yl)phenyl)-3-hydroxy-6-methylpyridin-4-yl)-2-chlorophenyl)-3-methyl-1H-imidazol-2(3H)-one], the GI50 in test [1] (setting [3]) is 0.3 to 30 nM. For the same compound, the IC50 in test [2] (setting [4]) fell in the range of 0.01 to 1 nM.
In turn, `COc1ncc(-c2cc(F)cc(-c3ccc(-n4ccn(C)c4=O)c(Cl)c3)c2O)cc1N1CC[C@]2(CCCN2C(C)C)C1` [Example 958, (R)-1-(3-chloro-5′-fluoro-2′-hydroxy-3′-(5-(1-isopropyl-1,7-diazaspiro[4.4]nonan-7-yl)-6-methoxypyridin-3-yl)-[1,1′-biphenyl]-4-yl)-3-methyl-1,3-dihydro-2H-imidazol-2-one] displayed a GI50 in test [1] (setting [3]) of 0.3 to 30 nM. Moreover, in test [2] (setting [4]), the half-inhibitory concentration (IC50) was 0.01 to 1 nM.
The compound `CN1CCN(c2ccc(-c3cccc(-c4ccc(CN)c(N5CCNCC5)c4)c3O)cc2Cl)C1=O` [Example 319, 1-(4″-(aminomethyl)-3-chloro-2′-hydroxy-3″-(piperazin-1-yl)-[1,1′:3′,1″-terphenyl]-4-yl)-3-methylimidazolidin-2-one] gave a 50% growth inhibitory concentration (GI50) in test [1] (setting [5]) of 300 to 3000 nM. Moreover, the IC50 in test [2] (setting [6]) lay in the range of 1 to 10 nM.
Compound `Cc1cc(-c2ccc(-n3ccn(C)c3=O)c(Cl)c2)c(O)c(-c2cnc(N)c(N3CCC4(CCN4C(C)C)C3)c2)n1` (stereo not shown) [Example 975, 1-(4-(6′-amino-3-hydroxy-5′-(1-isopropyl-1,6-diazaspiro[3.4]octan-6-yl)-6-methyl-[2,3′-bipyridin]-4-yl)-2-chlorophenyl)-3-methyl-1H-imidazol-2(3H)-one] displayed a GI50 in test [1] (setting [3]) of 0.3 to 30 nM. Further, the IC50 in test [2] (setting [4]) lay within 1 to 10 nM.
The matching figures for `CC(C)N1CCCC12CCN(c1cc(-c3cc(F)cc(-c4ccc(-n5ccn(C)c5=O)c(Cl)c4)c3O)cnc1N)C2` (stereo not shown) [Example 968, 1-(3′-(6-amino-5-(1-isopropyl-1,7-diazaspiro[4.4]nonan-7-yl)pyridin-3-yl)-3-chloro-5′-fluoro-2′-hydroxy-[1,1′biphenyl]-4-yl)-3-methyl-1H-imidazol-2(3H)-one]: 0.3 to 30 nM and 1 to 10 nM.
Regarding `Cn1ccn(-c2ccc(-c3cc(F)cc(-c4cnc(C5CC5)c(N5CC(C)(O)C6(CC6)C5)c4)c3O)cc2Cl)c1=O` (stereo not shown) [Example 849, 1-(3-Chloro-3′-(6-cyclopropyl-5-(7-hydroxy-7-methyl-5-azaspiro[2.4]heptan-5-yl)pyridin-3-yl)-5′-fluoro-2′-hydroxy-[1,1′-biphenyl]-4-yl)-3-methyl-1H-imidazol-2(3H)-one], the GI50 in test [1] (setting [3]) was in the range of 30 to 300 nM. Also, the IC50 in test [2] (setting [4]) lay within 0.01 to 1 nM.
As to `Cn1ccn(-c2ccc(-c3cc(F)cc(-c4ccnc(N5CC[C@H](N6CCOCC6)C5)c4)c3O)cc2Cl)c1=O` [Example 635, (S)-1-(3-chloro-5′-fluoro-2′-hydroxy-3′-(2-(3-morpholinopyrrolidin-1-yl)pyridin-4-yl)-[1,1′-biphenyl]-4-yl)-3-methyl-1H-imidazol-2(3H)-one], the GI50 in test [1] (setting [5]) lay within 0.3 to 30 nM. Further, the IC50 in test [2] (setting [6]) fell in the range of 1 to 10 nM.
The compound `Cn1ccn(-c2ccc(-c3cc(F)cc(-c4cncc(N5CCC(C)(O)C5)c4)c3O)cc2Cl)c1=O` (stereo not shown) [Example 708, 1-(3-chloro-5′-fluoro-2′-hydroxy-3′-(5-(3-hydroxy-3-methylpyrrolidin-1-yl)pyridin-3-yl)-[1,1′-biphenyl]-4-yl)-3-methyl-1H-imidazol-2(3H)-one] returned a GI50 in test [1] (setting [5]) of 0.3 to 30 nM. For the same compound, in test [2] (setting [6]), the IC50 was 0.01 to 1 nM.
The compound `Cc1ccc(S(=O)(=O)n2ccc3c(N4CCN[C@H](C)C4)cc(-c4cc(F)cc(-c5ccc(-n6ccn(C)c6=O)c(Cl)c5)c4O)cc32)cc1` [Example 608, (R)-1-(3-chloro-5′-fluoro-2′-hydroxy-3′-(4-(3-methylpiperazin-1-yl)-1-tosyl-1H-indol-6-yl)-[1,1′-biphenyl]-4-yl)-3-methyl-1H-imidazol-2(3H)-one] yielded a GI50 in test [1] (setting [5]) of 30 to 300 nM. In test [2] (setting [6]), the IC50 was 10 to 100 nM.
As to `Cc1cc(-c2ccc(-n3ccn(C)c3=O)c(Cl)c2)c(O)c(-c2cnc(C)c(N3CCC4(CCN4C(C)C)C3)c2)n1` (stereo not shown) [Example 974, 1-(2-chloro-4-(3-hydroxy-5′-(1-isopropyl-1,6-diazaspiro[3.4]octan-6-yl)-6,6′-dimethyl-[2,3′-bipyridin]-4-yl)phenyl)-3-methyl-1H-imidazol-2(3H)-one], the concentration for 50% growth inhibition (GI50) in test [1] (setting [3]) fell in the range of 0.3 to 30 nM. Further, the IC50 in test [2] (setting [4]) is 0.01 to 1 nM.
For `CCN1CCN(c2cc(-c3cc(F)cc(-c4ccc(-n5ccn(C)c5=O)c(Cl)c4)c3O)cc3[nH]ncc23)CC1` [Example 582], in test [1] (setting [5]), the GI50 lay within 0.3 to 30 nM. The IC50 in test [2] (setting [6]) was 0.01 to 1 nM.
